pIC50: −log10 of the molar value.
Legend:
[1] = tested on: Phosphorylation of ERK1/2 in A-427 cells; experiment: Phospho-ERK1/2 MSD Assay (A-427 cells); format: cell-based; details: Homo sapiens, A-427, 2 h, 2 h treatment, read-out: p-ERK (A427 cells) IC50
Outline: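 ERK1/2 phosphorylation measured by Meso Scale whole-cell lysate assay after A-427 cells were exposed to a titration of compound for 2 h at 37 °C.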

[2] = biological target: His-tagged KRAS G12D protein (Homo sapiens, UniProt P01116, G12D); experiment: KRAS G12D TR-FRET Assay; format: binding
[3] = biological target: GDP-bound KRAS protein (aa 1-169), containing both G12D and C118A amino acid substitutions (Homo sapiens, UniProt P01116, C118A/G12D); experiment: KRAS G12D Coupled Nucleotide Exchange Assay; format: biochemical; details: 2 h compound pre-incubation
Description: Following compound pre-incubation, purified SOS protein (aa 564-1049) and GTP (Roche 10106399001) were added to the assay wells and incubated for an additional 30 min. […] The assay plates were then read on a PerkinElmer EnVision Multilabel Reader, using AlphaScreen® technology, and data were analyzed using a 4-parameter logistic model to calculate IC50 values.

[4] = tested on: Phosphorylation of ERK1/2 in AsPC-1 cells; experiment: Phospho-ERK1/2 MSD Assay (AsPC-1 cells); format: cell-based; details: Homo sapiens, ASPC1, 2 h, 2 hours treatment, read-out: p-ERK (AsPC-1 cells) IC50
Outline: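 Read-out: MSD electrochemiluminescent detection of phosphorylated ERK1/2 in whole-cell lysates, fitted to a 4-parameter logistic curve for IC50. Prior to lysis, AsPC-1 cells (25,000 per well) received a 2 h compound dose-response at 37 °C.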

GDP-bound KRAS protein (aa 1-169), containing both G12D and C118A amino acid substitutions, sequence (P01116 1-169 isoform P01116-2 G12D/C118A): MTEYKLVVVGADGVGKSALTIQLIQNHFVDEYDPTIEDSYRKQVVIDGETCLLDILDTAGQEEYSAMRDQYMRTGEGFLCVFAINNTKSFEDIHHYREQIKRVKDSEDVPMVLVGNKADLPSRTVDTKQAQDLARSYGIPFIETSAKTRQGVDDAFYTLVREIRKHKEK
His-tagged KRAS G12D protein, sequence (P01116 1-188 isoform P01116-2 G12D): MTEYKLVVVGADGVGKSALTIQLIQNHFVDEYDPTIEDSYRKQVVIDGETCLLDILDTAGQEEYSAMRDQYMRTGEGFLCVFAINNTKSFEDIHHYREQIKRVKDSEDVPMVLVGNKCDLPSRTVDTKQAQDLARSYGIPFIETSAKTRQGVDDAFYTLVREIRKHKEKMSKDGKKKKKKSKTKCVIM

| Structure (SMILES) | pIC50 [1] | pIC50 [2] | Avg 2 h Coupled Exchange IC50 [3] [µM] | pIC50 [4] |
| --- | --- | --- | --- | --- |
| CCc1c(F)ccc2cc(O)cc(-c3cc4nc(OC[C@@]56CCCN5C[C@H](F)C6)nc(N5C[C@H]6CC[C@@H](C5)N6)c4cc3F)c12 [Example 83, 4-(4-((1R,5S)-3,8-diazabicyclo[3.2. 1]octan-3-yl)-6-fluoro-2-(((2R,7aS)-2-fluorotetrahydro-1H-pyrrolizin-7a(5H)-yl)methoxy)quinazolin-7-yl)-5-ethyl-6-fluoronaphthalen-2-ol] | 7.55 | 8.52 | 0.002 | 7.11 |
| Oc1cc(-c2c(F)cc3c(N4C[C@H]5CC[C@@H](C4)N5)nc(OC[C@@]45CCCN4C[C@H](F)C5)nc3c2F)c2c(F)c(F)ccc2c1 [Example 84, 4-(4-((1R,5S)-3,8-diazabicyclo[3.2. 1]octan-3-yl)-6,8-difluoro-2-(((2R,7aS)-2-fluorotetrahydro-1H-pyrrolizin-7a(5H)-yl)methoxy)quinazolin-7-yl)-5,6-difluoronaphthalen-2-ol] | 8.30 | 8.40 | 0.004 | 7.66 |
| Oc1cc(-c2cc3nc(OC[C@@]45CCCN4C[C@H](F)C5)nc(N4C[C@H]5CC[C@@H](C4)N5)c3cc2F)c2c(Cl)cccc2c1 [Example 85, 4-(4-((1R,5S)-3,8-diazabicyclo[3.2. 1]octan-3-yl)-6-fluoro-2-(((2R,7aS)-2-fluorotetrahydro-1H-pyrrolizin-7a(5H)-yl)methoxy)quinazolin-7-yl)-5-chloronaphthalen-2-ol] | 7.19 | 8.40 | 0.001 | 6.56 |
| Oc1cc(-c2c(Cl)cc3c(N4C[C@H]5CC[C@@H](C4)N5)nc(OC[C@@]45CCCN4C[C@H](F)C5)nc3c2F)c2c(Cl)cccc2c1 [Example 86, 4-(4-((1R,5S)-3,8-diazabicyclo[3.2. 1]octan-3-yl)-6-chloro-8-fluoro-2-(((2R,7aS)-2-fluorotetrahydro-1H-pyrrolizin-7a(5H)-yl)methoxy)quinazolin-7-yl)-5-chloronaphthalen-2-ol] | 7.27 | 8.40 | 0.002 | 6.83 |
| CCc1c(F)ccc2cc(O)cc(-c3ccc4c(N5C[C@H]6CC[C@@H](C5)N6)nc(OC[C@@]56CCCN5C[C@H](F)C6)nc4c3F)c12 [Example 87, 4-(4-((1R,5S)-3,8-diazabicyclo[3.2. 1]octan-3-yl)-8-fluoro-2-(((2R,7aS)-2-fluorotetrahydro-1H-pyrrolizin-7a(5H)-yl)methoxy)quinazolin-7-yl)-5-ethyl-6-fluoronaphthalen-2-ol] | 8.22 | 8.15 | 0.010 | 7.80 |
| CCc1c(F)ccc2cc(O)cc(-c3c(F)cc4c(N5C[C@H]6CC[C@@H](C5)N6)nc(OC[C@@]56CCCN5C[C@H](F)C6)nc4c3F)c12 [Example 88, 4-(4-((1R,5S)-3,8-diazabicyclo[3.2. 1]octan-3-yl)-6,8-difluoro-2-(((2R,7aS)-2-fluorotetrahydro-1H-pyrrolizin-7a(5H)-yl)methoxy)quinazolin-7-yl)-5-ethyl-6-fluoronaphthalen-2-ol] | 8.52 | 8.40 | 0.004 | 8.05 |
| CCc1c(F)ccc2cc(O)cc(-c3c(F)cc4c(N5C[C@H]6CC[C@@H](C5)N6)nc(OC[C@@H]5C[C@@H](F)CN5C)nc4c3F)c12 [Example 89, 4-(4-((1R,5S)-3,8-diazabicyclo[3.2. 1]octan-3-yl)-6,8-difluoro-2-(((2S,4R)-4-fluoro-1-methylpyrrolidin-2-yl)methoxy)quinazolin-7-yl)-5-ethyl-6-fluoronaphthalen-2-ol] | 7.10 | 8.40 | 0.004 | 6.86 |
| CCc1c(F)ccc2cccc(-c3ccc4c(N5C[C@H]6CC[C@@H](C5)N6)nc(OC[C@@]56CCCN5C[C@H](F)C6)nc4c3F)c12 [Example 90, 4-((1R,5S)-3,8-diazabicyclo[3.2. 1]octan-3-yl)-7-(8-ethyl-7-fluoronaphthalen-1-yl)-8-fluoro-2-(((2R,7aS)-2-fluorotetrahydro-1H-pyrrolizin-7a(5H)-yl)methoxy) quinazoline] | 6.34 | 8.40 | 0.003 | 6.10 |
| CCc1c(F)ccc2cc(O)cc(-c3ccc4c(N5C[C@@H]6CC[C@H]5CN6)nc(OC[C@@]56CCCN5C[C@H](F)C6)nc4c3C)c12 [Example 92, 4-(4-((1S,4S)-2,5-diazabicyclo[2.2. 2]octan-2-yl)-2-(((2R,7aS)-2-fluorotetrahydro-1H-pyrrolizin-7a(5H)-yl)methoxy)-8-methylquinazolin-7-yl)-5-ethyl-6-fluoronaphthalen-2-ol] | 6.06 | 7.62 | 0.033 | 6.08 |
| CCc1c(F)ccc2cc(O)cc(-c3c(F)cc4c(N5C[C@@H]6CC[C@H]5CN6)nc(OC[C@@]56CCCN5C[C@H](F)C6)nc4c3F)c12 [Example 93, 4-(4-((1S,4S)-2,5-diazabicyclo[2.2. 2]octan-2-yl)-6,8-difluoro-2-(((2R,7aS)-2-fluorotetrahydro-1H-pyrrolizin-7a(5H)-yl)methoxy)quinazolin-7-yl)-5-ethyl-6-fluoronaphthalen-2-ol] | 8.22 | 8.30 | 0.006 | 8.05 |
| CCc1c(F)ccc2cc(O)cc(-c3c(F)cc4c(N5C[C@@H]6CC[C@H]5CN6)nc(OC[C@@H]5C[C@@H](F)CN5C)nc4c3F)c12 [Example 94, 4-(4-((1S,4S)-2,5-diazabicyclo[2.2. 2]octan-2-yl)-6,8-difluoro-2-(((2S,4R)-4-fluoro-1-methylpyrrolidin-2-yl)methoxy)quinazolin-7-yl)-5-ethyl-6-fluoronaphthalen-2-ol] | 6.96 | 8.30 | 0.004 | 6.82 |
| CCc1c(F)ccc2cc(O)cc(-c3ccc4c(N5C[C@H]6CC[C@@H](C5)N6)nc(OC[C@@]56CCCN5C[C@H](F)C6)nc4c3C)c12 [Example 95, 4-(4-((1R,5S)-3,8-diazabicyclo[3.2. 1]octan-3-yl)-2-(((2R,7aS)-2-fluorotetrahydro-1H-pyrrolizin-7a(5H)-yl)methoxy)-8-methylquinazolin-7-yl)-5-ethyl-6-fluoronaphthalen-2-ol] | 6.70 | 8.00 | 0.010 | 6.64 |
| Cc1c(-c2cc(O)cc3cccc(Cl)c23)ccc2c(N3C[C@@H]4CC[C@H]3CN4)nc(OC[C@@]34CCCN3C[C@H](F)C4)nc12 [Example 96, 4-(4-((1S,4S)-2,5-diazabicyclo[2.2. 2]octan-2-yl)-2-(((2R,7aS)-2-fluorotetrahydro-1H-pyrrolizin-7a(5H)-yl)methoxy)-8-methylquinazolin-7-yl)-5-chloronaphthalen-2-ol] | 7.02 | 8.15 | 0.005 | 6.67 |
| Cc1c(-c2cc(O)cc3ccc(F)c(F)c23)ccc2c(N3C[C@H]4CC[C@@H](C3)N4)nc(OC[C@@]34CCCN3C[C@H](F)C4)nc12 [Example 97, 4-(4-((1R,5S)-3,8-diazabicyclo[3.2. 1]octan-3-yl)-2-(((2R,7aS)-2-fluorotetrahydro-1H-pyrrolizin-7a(5H)-yl)methoxy)-8-methylquinazolin-7-yl)-5,6-difluoronaphthalen-2-ol] | 7.16 | 8.22 | 0.006 | 6.75 |
| Cc1c(-c2cc(O)cc3cccc(Cl)c23)ccc2c(N3[C@@H]4CC[C@H]3CNC4)nc(OC[C@@]34CCCN3C[C@H](F)C4)nc12 [Example 98, 4-(4-((1R,5S)-3,8-diazabicyclo[3.2. 1]octan-8-yl)-2-(((2R,7aS)-2-fluorotetrahydro-1H-pyrrolizin-7a(5H)-yl)methoxy)-8-methylquinazolin-7-yl)-5-chloronaphthalen-2-ol] | 6.23 | 7.89 | 0.013 | 5.98 |
| C#Cc1cccc2cc(O)cc(-c3ccc4c(N5[C@@H]6CC[C@H]5CNC6)nc(OC[C@@]56CCCN5C[C@H](F)C6)nc4c3F)c12 [Example 99, 4-(4-((1R,5S)-3,8-Diazabicyclo[3.2.1]octan-8-yl)-8-fluoro-2-(((2R,7aS)-2-fluorotetrahydro-1H-pyrrolizin-7a(5H)-yl)methoxy)quinazolin-7-yl)-5-ethynylnaphthalen-2-ol] | 8.30 | 8.52 | 0.003 | 7.72 |
| C#Cc1cccc2cccc(-c3c(F)cc4c(N5[C@@H]6CC[C@H]5CNC6)nc(OC[C@@]56CCCN5C[C@H](F)C6)nc4c3F)c12 [Example 100, 4-((1R,5S)-3,8-Diazabicyclo[3.2.1]octan-8-yl)-7-(8-ethynylnaphthalen-1-yl)-6,8-difluoro-2-(((2R,7aS)-2-fluorotetrahydro-1H-pyrrolizin-7a(5H)-yl)methoxy)quinazoline] | 6.02 | 8.10 | 0.006 | 6.18 |
